Test results from patent US4410516A, “1-N(αHydroxy-ω-aminoalkanoyl) derivatives of 5,3',4'-trideoxy- or 5,3', 4'-trideoxy-6'-N- methyl- or 5, 3', 4',6"-tetradeoxykannamyci B and production thereof” (Zaidan Hojin Biseibutsu Kagaku Kenkyu Kai, priority 1981, dated 1983).
Values after ≈ are worked out from the molar mass of the structure shown. Where two headings read alike, the source gives them in different places.

Experiments:
Format in all cases: cell-based
[1] = system: Pseudomonas aeruginosa B-13; test: Minimum inhibitory concentration, serial dilution on nutrient agar; conditions: B13, 37° C., 18 hours incubation
[2] = system: Providencia 2991; test: as above; conditions: 37° C., 18 hours incubation
[3] = system: Pseudomonas aeruginosa H9; test: as above
[4] = system: Pseudomonas aeruginosa No. 12; test: as above
[5] = system: Serratia 4; test: as above; conditions: 37° C., 18 hours incubation
[6] = system: Pseudomonas aeruginosa GN315; test: as above; conditions: GN315, nutrient agar, 37° C., 18 hours incubation, read-out: MIC
[7] = system: Escherichia coli K-12; test: as above; conditions: K12, nutrient agar, 37° C., 18 hours incubation, read-out: MIC
[8] = system: Pseudomonas aeruginosa 99; test: as above
[9] = system: Escherichia coli K-12 R 388; test: as above; conditions: K12R388, 18 h
[10] = system: Pseudomonas aeruginosa H11; test: as above
[11] = system: Pseudomonas aeruginosa K-Ps102; test: as above; conditions: KPS102, nutrient agar, 37° C., 18 hours incubation, read-out: MIC
[12] = system: Proteus vulgaris OX19; test: as above; conditions: 37° C., 18 hours incubation
[13] = system: Mycobacterium smegmatis ATCC 607; test: as above; conditions: Mycolicibacterium smegmatis, ATCC607; nutrient agar, 37° C., 18 hours incubation; read-out: MIC
[14] = system: Proteus rettgeri GN311; test: as above; conditions: Providencia rettgeri, 37° C., 18 hours incubation
[15] = system: Escherichia coli K-12 R5; test: as above; conditions: K12R5, 18 h
[16] = system: Pseudomonas aeruginosa 21-75; test: as above; conditions: 2175, 37° C., 18 hours incubation
[17] = system: Escherichia coli NIHJ; test: as above; conditions: nutrient agar, 37° C., 18 hours incubation, read-out: MIC
[18] = system: Staphylococcus aureus AP01; test: as above; conditions: 37° C., 18 hours incubation
[19] = system: Escherichia coli JR255; test: as above; conditions: JR255, nutrient agar, 37° C., 18 hours incubation, read-out: MIC
[20] = system: Bacillus anthracis; test: microbe, parasite or virus in culture; conditions: 18 h
[21] = system: Pseudomonas maltophilia GN907; test: Minimum inhibitory concentration, serial dilution on nutrient agar; conditions: Stenotrophomonas maltophilia, 37° C., 18 hours incubation
[22] = system: Staphylococcus epidermidis 109; test: as above; conditions: Staphylococcus epidermidis, 109; nutrient agar, 37° C., 18 hours incubation; read-out: MIC
[23] = system: Salmonella enteritidis 1891; test: as above; conditions: Salmonella enterica, 18 h
[24] = system: Pseudomonas aeruginosa A3; test: as above; conditions: 37° C., 18 hours incubation
[25] = system: Escherichia coli K-12 ML 1630; test: as above; conditions: K12ML1630, 37° C., 18 hours incubation
Text: (§1) The minimum inhibitory concentration (mcg/ml) of 1-N-[(S)-4-amino-2-hydroxybutyryl]-5,3',4'-trideoxykanamycin B (abbreviated as AHB-trideoxyKMB), 1-N-[(RS)-3-amino-2-hydroxypropionyl]-5,3',4'-trideoxykanamycin B (abbreviated as AHP-trideoxy-KMB) and 1-N-[(S)-4-amino-2-hydroxybutyryl]-5,3',4',6"-tetradeoxykanamycin B (abbreviated as AHB-tetradeoxyKMB) of the formula (II) according to this invention as well as of the new compound 5,3',4',6"-tetradeoxykanamycin B (abbreviated as tetradeoxyKMB) of the formula (III) according to this invention against various microorganisms were determined according to serial dilution method on a nutrient agar medium at 37° C., the estimation being made after 18 hours incubation. For comparison purpose, the minimum inhibitory concentrations of habekacin were also determined in the same manner as stated above.
(§2) The minimum inhibitory concentrations (mcg/ml) of 1-N-[(S)-4-amino-2-hydroxybutyryl]-5,3',4'-trideoxy-6'-N-methylkanamycin B (abbreviated as AHB-trideoxyMKMB), 1-N-[(RS)-3-amino-2-hydroxypropionyl]-5,3',4'-trideoxy-6'-N-methylkanamycin B (abbreviated as AHP-trideoxyMKMB) and 1-N-[(S)-5-amino-2-hydroxyvaleryl]-5,3',4'-trideoxy-6'-N-methylkanamycin B (abbreviated as AHV-trideoxyMKMB) of the formula (IV) according to this invention as well as of the new compound 5,3',4'-trideoxy-6'-N-methylkanamycin B (abbreviated as trideoxyMKMB) of the formula (V) according to this invention against various microorganisms were determined according to serial dilution method on a nutrient agar medium at 37° C., the estimation being made after 18 hours incubation. For comparison purpose, the minimum inhibitory concentrations of 1-N-[(S)-4-amino-2-hydroxybutyryl]-3',4'-dideoxykanamycin B (ie. habekacin) were also determined in the same manner as stated above.

[26] = system: Shigella sonnei JS11746; test: as above; conditions: 37° C., 18 hours incubation
Text: as §1, §2

[27] = system: Micrococcus flavus FDA 16; test: as above
[28] = system: Bacillus cereus ATCC 10702; test: as above; conditions: ATCC10702, nutrient agar, 37° C., 18 hours incubation, read-out: MIC
[29] = system: Bacillus subtilis NRRL B-558; test: as above; conditions: NRRLB558, 37° C., 18 hours incubation
[30] = system: Escherichia coli W677; test: as above; conditions: W677, nutrient agar, 37° C., 18 hours incubation, read-out: MIC
[31] = system: Pseudomonas aeruginosa PST1; test: as above

Structure (SMILES) | MIC [1] [µg/mL] | MIC [2] [µg/mL] | MIC [5] [µg/mL] | MIC [6] [µg/mL] | MIC [7] [µg/mL] | MIC [9] [µg/mL] | MIC [11] [µg/mL] | MIC [12] [µg/mL] | MIC [13] [µg/mL] | MIC [14] [µg/mL] | MIC [15] [µg/mL] | MIC [16] [µg/mL] | MIC [17] [µg/mL] | MIC [18] [µg/mL] | MIC [19] [µg/mL] | MIC [20] [µg/mL] | MIC [21] [µg/mL] | MIC [22] [µg/mL] | MIC [23] [µg/mL] | MIC [24] [µg/mL] | further results
NCC[C@H](O)C(=O)N[C@@H]1C[C@H](N)[C@@H](O[C@H]2O[C@H](CN)CC[C@H]2N)C[C@H]1O[C@H]1O[C@H](CO)[C@@H](O)[C@H](N)[C@H]1O [AHB-trideoxyKMB, 1-N-[(S)-4-amino-2-hydroxybutyryl]-5,3',4'-trideoxykanamycin B] | 6.25 (≈ 11.6 µM) | 6.25 (≈ 11.6 µM) | 12.5 (≈ 23.3 µM) | 25 (≈ 46.6 µM) | 0.78 (≈ 1.45 µM) | 0.78 (≈ 1.45 µM) | 1.56 (≈ 2.91 µM) | 0.39 (≈ 0.727 µM) | 0.2 (≈ 0.373 µM) | 25 (≈ 46.6 µM) | 100 (≈ 186 µM) | 6.25 (≈ 11.6 µM) | 0.78 (≈ 1.45 µM) | 0.39 (≈ 0.727 µM) | 0.39 (≈ 0.727 µM) | < 0.2 | > 100 | 0.39 (≈ 0.727 µM) | 3.13 (≈ 5.83 µM) | 0.39 (≈ 0.727 µM) | MIC ([3]; H9, 18 h): 3.13 µg/mL (≈ 5.83 µM); MIC ([4]; NO.12, 18 h): 3.13 µg/mL (≈ 5.83 µM); MIC ([8]; Pseudomonas aeruginosa, 99, 18 h): 3.13 µg/mL (≈ 5.83 µM); MIC ([10]; H11, nutrient agar, 37° C., 18 hours incubation, read-out: MIC): 6.25 µg/mL (≈ 11.6 µM); MIC [25]: 1.56 µg/mL (≈ 2.91 µM); MIC [26]: 3.13 µg/mL (≈ 5.83 µM); MIC ([27]; FDA16, nutrient agar, 37° C., 18 hours incubation, read-out: MIC): 1.56 µg/mL (≈ 2.91 µM); MIC [28]: 0.78 µg/mL (≈ 1.45 µM); MIC [29]: < 0.2 µg/mL; MIC [30]: 0.78 µg/mL (≈ 1.45 µM); MIC ([31]; PST1, nutrient agar, 37° C., 18 hours incubation, read-out: MIC): 6.25 µg/mL (≈ 11.6 µM)
NCC(O)C(=O)N[C@@H]1C[C@H](N)[C@@H](O[C@H]2O[C@H](CN)CC[C@H]2N)C[C@H]1O[C@H]1O[C@H](CO)[C@@H](O)[C@H](N)[C@H]1O (stereo partly drawn) [AHP-trideoxyKMB, 1-N-[(RS)-3-amino-2-hydroxypropionyl]-5,3',4'-trideoxykanamycin B] | 12.5 (≈ 23.9 µM) | 25 (≈ 47.8 µM) | 25 (≈ 47.8 µM) | 50 (≈ 95.7 µM) | 1.56 (≈ 2.99 µM) | 1.56 (≈ 2.99 µM) | 3.13 (≈ 5.99 µM) | 0.78 (≈ 1.49 µM) | 0.2 (≈ 0.383 µM) | 25 (≈ 47.8 µM) | 100 (≈ 191 µM) | 12.5 (≈ 23.9 µM) | 1.56 (≈ 2.99 µM) | 0.78 (≈ 1.49 µM) | 1.56 (≈ 2.99 µM) | < 0.2 | > 100 | 0.78 (≈ 1.49 µM) | 6.25 (≈ 12 µM) | 0.78 (≈ 1.49 µM) | MIC ([3]; H9, nutrient agar, 37° C., 18 hours incubation, read-out: MIC): 3.13 µg/mL (≈ 5.99 µM); MIC ([4]; NO.12, nutrient agar, 37° C., 18 hours incubation, read-out: MIC): 3.13 µg/mL (≈ 5.99 µM); MIC ([8]; Pseudomonas aeruginosa, 99, nutrient agar, 37° C., 18 hours incubation, read-out: MIC): 3.13 µg/mL (≈ 5.99 µM); MIC ([10]; H11, 18 h): 6.25 µg/mL (≈ 12 µM); MIC [25]: 3.13 µg/mL (≈ 5.99 µM); MIC [26]: 6.25 µg/mL (≈ 12 µM); MIC ([27]; FDA16, 18 h): 6.25 µg/mL (≈ 12 µM); MIC [28]: 0.78 µg/mL (≈ 1.49 µM); MIC [29]: < 0.2 µg/mL; MIC [30]: 1.56 µg/mL (≈ 2.99 µM); MIC ([31]; PST1, 18 h): 6.25 µg/mL (≈ 12 µM)
